Laboratory results taken from patent US11931321B2, “Compositions comprising a dendrimer-resveratrol complex and methods for making and using the same” (Concordia University, priority 2013, dated 2024).

Legend:
[1] = Stability studies: HPLC of resveratrol remaining in aqueous solution; format: physicochemical
Protocol: The sample can then be analyzed via HPLC to determine the amount of resveratrol in the composition. This amount of resveratrol can be compared to the initially determined amount. This comparison amount can be used to determine the percent degradation.
Stability was determined by HPLC analysis of a 1% PAMAM-G4 amine dendrimer-resveratrol complex at 21° C. (ambient temperature), 37° C., and 4° C. […]

[2] = Dissolution studies in simulated gastric and intestinal fluids; format: physicochemical
Protocol: The formulation was split into 2 equal aliquots and lyophilized. Simulated gastric and intestinal fluids were prepared, with the simulated gastric fluid consisting of HCl, NaCl, Pepsin, and water while the simulated intestinal fluid consisted of NaOH, KH2PO4, and water. […] This experiment was protected from light. At various time points, 0.5 mL aliquots of fluid were removed from the chambers and analyzed via HPLC. The volume removed was replaced with fresh simulated fluid.

[3] = background statement; cited from earlier work
[4] = background statement; cited from earlier work; remark: listed apart in the source

drug remained intact ([1]; 4° C., day 29, aqueous solution): no drug remained
resveratrol remained intact ([1]; ambient temperature (21° C.), day 4, aqueous solution): completely degraded
time to dissolution (still dissolving at final time point) ([2]; simulated gastric fluid): > 4.5 h
time to dissolution (still dissolving at final time point) ([2]; simulated intestinal fluid): > 4.5 h
Structure (SMILES): Oc1ccc(C=Cc2cc(O)cc(O)c2)cc1 [Resveratrol, 3,4′,5-trihydroxystilbene]
aqueous solubility [3]: 0.015 to 0.04 µg/mL
half-life [4]: 8 to 14 min
metabolic stability [4]: poor
oral bioavailability [4]: low
